Reference: patent US10500222B2, “Compositions and methods relating to treatment of infection” (Wayne State University, priority 2015, dated 2019)

Experiments:
Type in all cases: in vivo, C57BL/6 (B6) mice
[1] = tested on: neutrophils in the cornea, P. aeruginosa ATCC strain 19660; assay: Myeloperoxidase (MPO) assay, strain 19660 infection; settings: vs PBS
Procedure: (§1) The left eyes of B6 mice (n=5/group/time) were injected with 5 μl of 2 μg/μl glycyrrhizin (GLY) (Sigma-Aldrich, St. Louis, Mo.) or PBS (control) subconjunctivally, one day before infection. Similar treatment was done using carbenoxolone (CBX) (Sigma-Aldrich, St. Louis, Mo.). All mice were injected intraperitoneally (IP) at 1 and 3 days p.i. with 100 μl of GLY (2 μg/μl) or CBX (1 μg/μl). PBS served as control for all these experiments. In a separate similar experiment mice were treated one day before infection with GLY subconjunctivally and injected intraperitoneally (i.p.) with GLY plus recombinant (r) HMGB1 (1 μg/100 μl) or GLY plus PBS. IP injections were similarly given at 1 and 3 days p.i. In an additional experiment, KEI 1025 infected B6 mice were treated with 5 μl of 2 μg/μl GLY subconjunctivally at 6 hours p.i. and injected intraperitoneally at 1 and 3 days p.i. with 100 μl of GLY (2 μg/μl).
(§2) This assay was used to quantitate neutrophils in the cornea of GLY and PBS treated mice (n=5/group/time) infected with KEI 1025 or ATCC strain 19660. Individual corneas were removed at 3 and 5 days p.i. and homogenized in 1.0 ml of 50 mM phosphate buffer (pH 6.0) containing 0.5% HTAB. […] The change in absorbency was monitored at 460 nm for 5 min at 30 sec intervals. The slope of the line was determined for each sample and used to calculate units of MPO/cornea. […]

[2] = tested on: protein levels in P. aeruginosa KEI 1025 infected cornea; assay: ELISA of corneal proteins, KEI 1025 infection; settings: vs PBS
Procedure: as §1
KEI 1025 or ATCC strain 19660 infected GLY or PBS treated, B6 mice (n=5/group/time) were sacrificed at 3 and 5 days p.i. and normal and infected corneas harvested. To quantify IL-1β and CXCL2 proteins, individual corneas were homogenized in 1 ml of 50 mM potassium phosphate buffer (pH 6.0) containing 0.5% HTAB (hexadecyltrimethylammonium bromide, Sigma). To quantify HMGB1, cathelicidin-related antimicrobial peptide (CRAMP), mouse beta defensin 2 (mBD2) and mouse beta defensin 3 (mBD3) protein levels, individual corneas were homogenized in 500 μl of PBS containing 0.1% Tween 20 (Sigma) and protease inhibitors (Roche, Indianapolis, Ind.). Corneal homogenates were centrifuged at 12,000 g for 10 min. A 50 μl aliquot of each supernatant was assayed in duplicate to quantify IL-1β, CXCL2, HMGB1 and mBD2 proteins. A 100 μl aliquot of CRAMP and mBD3 supernatant was assayed in duplicate to quantify corresponding protein levels. Undiluted supernatant aliquots were used to quantify all proteins except CXCL2 (1:2 dilution) and HMGB1 (1:5 dilution). An HMGB1 ELISA kit was purchased from Chondrex Inc., Redmond, Wash. CRAMP, mBD2 and mBD3 ELISA kits were purchased from MyBioSource, Inc., San Diego, Calif. All other ELISA kits were purchased from R&D Systems, Minneapolis, Minn. Assays were run following the manufacturer's instructions. Sensitivities of the assays were: 2.31 […] (mBD3).

[3] = tested on: neutrophils in the cornea, P. aeruginosa KEI 1025; assay: Myeloperoxidase (MPO) assay, KEI 1025 infection; settings: pretreatment subconj. + IP, vs PBS
Procedure: as §1, §2

[4] = KEI 1025, pretreatment subconj. + IP, 3 days p.i.
[5] = KEI 1025, pretreatment subconj. + IP, 5 days p.i.

In the case of CC1(C)[C@@H](O[C@H]2O[C@H](C(=O)O)[C@@H](O)[C@H](O)[C@H]2O[C@@H]2O[C@H](C(=O)O)[C@@H](O)[C@H](O)[C@H]2O)CC[C@]2(C)[C@H]3C(=O)C=C4[C@@H]5C[C@@](C)(C(=O)O)CC[C@]5(C)CC[C@@]4(C)[C@]3(C)CC[C@@H]12 [GLY, glycyrrhizin], the “neutrophils in the cornea (MPO assay)” value ([1]; 3 days p.i.) is reported as “significant decrease in neutrophils”, the “neutrophils in the cornea (MPO assay)” value ([1]; 5 days p.i.) is reported as “significant decrease in neutrophils” and the CXCL2 protein expression [2, 4] is reported as “significantly decreased”. For the same compound, the HMGB1 protein [2, 4] was “not 3 days p.i”, the IL-1 protein [2, 4] was “no different from control values” and the “expression of CRAMP (protein)” value [2, 4] was “upregulated the expression of CRAMP significantly”. The mBD2 protein [2, 4] was “significantly upregulated”, the mBD3 protein [2, 4] was “did not differ significantly” and the CXCL2 protein expression [2, 5] was “significantly decreased”. The HMGB1 protein [2, 5] was “reduced HMGB1 protein significantly”, the IL-1 protein [2, 5] was “significantly decreased” and the “expression of CRAMP (protein)” value [2, 5] was “no difference between groups”. The mBD2 protein [2, 5] was “significantly upregulated”, the mBD3 protein [2, 5] was “did not differ significantly” and the HMGB1 protein ([2]; normal cornea) was “did not differ”. The mBD3 protein ([2]; normal cornea) was “did not differ significantly”, the mBD2 protein ([2]; normal, contralateral uninfected eye) was “higher” and the “expression of CRAMP (protein)” value ([2]; normal, uninfected cornea) was “upregulated the expression of CRAMP significantly”. The “neutrophils in cornea (MPO assay)” value ([3]; 3 days p.i.) was “decreased neutrophils” and the “neutrophils in cornea (MPO assay)” value ([3]; 5 days p.i.) was “decreased neutrophils”.
